According to patent publication US7329520B2, “Fructosyl peptide oxidase and utilization thereof” (Daiichi Pure Chemicals Co., Ltd., priority 2002, dated 2008):
No end group written: not given here.

Columns and labels:
[1] = test system: Zingiber officinale-originating enzyme; assay: Hydrogen peroxide production, DA-64 color development; assay type: biochemical; settings: lmM substrate, enzyme 0.3 u/mL, 30 minutes at 50° C., pH 8.0, DA-64/POD
Description: To a 50 mM phosphate buffer (pH 8.0) containing 0.5 mM DA-64 (product of Wako Pure Chemical Industries, Ltd.), 200-u/mL POD, 0.1% sodium azide, and lmM fructosyl valine or fructosyl peptide (SEQ ID NOs: 1 to 5) (all being final concentrations), a Zingiber officinale-originating enzyme solution was added in an amount of 0.3 u/mL (final concentration), and the mixture was treated for 30 minutes at 50° C. Absorbance at 700 nm was measured by employment of purified water as a control. Color development of DA-64 was observed (Table 1). Thus, hydrogen peroxide was confirmed to be produced.

[2] = test system: enzyme originating from a plant belonging to the family Zingiberaceae; assay: Enzyme activity on substrates by glucosone production (substrate specificity, Km); assay type: biochemical, Zingiber officinale; settings: Lineweaver-Burk's plots; glucosone production at 37° C., pH 8.0
Description: The method for determining activity of the enzyme of the present invention is exemplified by a method in which the enzyme is reacted with a substrate fructosyl peptide, to thereby produce non-fructosyl peptide, glucosone, and hydrogen peroxide, and the amount of any one of these compounds produced through the enzyme reaction is measured. Next will be described an example method of measuring the amount of glucosone produced. Hereinafter, unless otherwise specified, the substrate employed for determining activity of the enzyme of the present invention is fructosyl valyl histidine. One unit (U) of the titer of the enzyme is defined as the amount of enzyme which produces 1 μmol glucosone in one minute as measured when the substrate is fructosyl valyl histidine. […]
To the above reaction mixture, a mixture which has been prepared in advance by mixing 200 mM acetate buffer (pH 6.0) (750 μL), 4000-u/mL glucose oxidase (Toyobo Co., Ltd.) (450 μL), 0.15% 4-aminoantipyrine (300 μL), 0.3% TOOS (Dojindo Laboratories) (300 μL), 500-u/mL peroxidase (Toyobo Co., Ltd.: Type III) (300 μL), and 1% sodium azide (300 μL) is added, followed by heating for 10 minutes at 37° C. Thereafter, absorbance is measured at 550 nm. […] Thus, the amount (in micromoles) of glucosone produced in one minute is calculated, and the obtained value is used as the activity unit of the enzyme solution. […]

[3] = test system: enzyme originating from Zingiber officinale; assay: Measurement of fructosyl peptide through glucosone, absorbance at 550 nm; assay type: biochemical; settings: 0 to 40 μM substrate, enzyme 1.6 u/mL (30 μL), 16 hours at 37° C.
Description: 200 mM Phosphate buffer (pH 8.0) (150 μL), purified water (360 μL), and each of aqueous fructosyl valyl histidine solutions (60 μL) having different concentrations were mixed together so that the final fructosyl valyl histidine concentrations after reaction fell between 0 and 40 μM. The reaction was mixed with a solution of the enzyme originating from Zingiber officinale (1.6 u/mL) (30 μL), and the resultant mixture was allowed to react for 16 hours at 37° C. Subsequently, a mixture which had been prepared in advance by mixing 200 mM acetate buffer (pH 6.0) (750 μL), 4000-u/mL glucose oxidase (Toyobo Co., Ltd.) (450 μL), 0.15% 4-aminoantipyrine (300 μL), 0.3% TOOS (Dojindo Laboratories) (300 μL), 500-u/mL peroxidase (Toyobo Co., Ltd.: Type III) (300 μL), and 1% sodium azide (300 μL) was added to the reaction mixture, and the resultant mixture was treated for 10 minutes at 37° C., followed by measuring absorbance at 550 nm (FIG. 7).

[4] = test system: Zingiberaceae-plant-origin crude enzyme solution; assay: Defructosylation of fructosyl peptide, analysed by capillary electrophoresis; assay type: biochemical, Zingiber officinale; settings: reaction mixture 1, 16 hours at 37° C., pH 8.0, control peak area 32 mABU×sec
Description: (i) A 100 mM phosphate buffer (pH 8.0) (100 μL), a 500 μM aqueous solution (40 μL) of the N-terminal-valine fructosylated peptide having an amino acid sequence represented by SEQ ID NO: 2 (f-VHL: products of Bioquest), purified water (20 μL), and the Zingiberaceae-plant-origin crude enzyme solution (40 μL) prepared in Example 1 were mixed together, and the mixture was caused to react for 16 hours at 37° C. The reaction mixture was subjected to ultrafiltration (molecular weight: 10,000), and the filtrate was collected (reaction mixture 1). The reaction mixture 1 was analyzed through use of a capillary electrophoresis apparatus CAPI-3200 (product of Otsuka Electronics Co., Ltd) (electrophoresis buffer: 150 mM phosphate buffer (pH 2.0), voltage: 15 kV, detection wavelength: 210 nm) in terms of peak position and peak area.
As a control, purified water was added instead of the crude enzyme solution, and the resultant mixture was allowed to react under similar conditions, to thereby prepare a filtrate (control solution 1). The analysis results obtained from the control solution 1 were compared with those of the reaction mixture 1.
The fructosyl peptide employed in the enzyme reaction or control test had been mixed with corresponding non-fructosylated peptide. The presence or absence of the enzyme activity was determined through comparison of the two peaks.

Compound: f-VHLTP: N-terminal-valine fructosylated pentapeptide substrate (SEQ ID NO: 4) (fructosyl-VHLTP)
- Absorbance at 700 nm [1]: 198 mAbs

Compound: f-VHLT: N-terminal-valine fructosylated tetrapeptide substrate (SEQ ID NO: 3) (fructosyl-VHLT)
- Absorbance at 700 nm [1]: 558 mAbs

Compound: CC(C)[C@H](NC1(CO)O[C@H](CO)[C@@H](O)[C@@H]1O)C(=O)N[C@@H](Cc1c[nH]cn1)C(=O)O (some centres unmarked) [f-VH, fructosyl valyl histidine]
- Km [2]: 1200 µM
- absorbance at 550 nm against substrate concentration [3]: increase in accordance with the increase in concentration
- Absorbance at 700 nm [1]: 735 mAbs

Compound: f-VHLTPE: N-terminal-valine fructosylated hexapeptide substrate (SEQ ID NO: 5) (fructosyl-VHLTPE)
- Absorbance at 700 nm [1]: 223 mAbs

Compound: f-VHL: N-terminal-valine fructosylated peptide having an amino acid sequence represented by SEQ ID NO: 2; fructosyl tripeptide (fructosyl-Val-His-Leu)
- peak attributed to f-VHL (capillary electrophoresis) [4]: does not exist
- Absorbance at 700 nm [1]: 570 mAbs
